From ChEMBL document CHEMBL4196008, “Structure activity relationships, multidrug resistance reversal and selectivity of heteroarylphenyl ABCG2 inhibitors” (Eur J Med Chem, 2018)

Assays:
[1] = target: T1, Broad substrate specificity ATP-binding cassette transporter ABCG2 (Homo sapiens, UniProt Q9UNQ0); experiment: Inhibition of C-terminal GFP-fused human ABCG2 expressed in MDCK2 cells up to 10 uM preincubated for 30 mins followed by Hoechst 33342 addition and measured every 60 secs for 120 mins by Hoechst 33342 accumulation assay; assay type: cell-based; details: 2 h
T1 sequence (Q9UNQ0 whole entry): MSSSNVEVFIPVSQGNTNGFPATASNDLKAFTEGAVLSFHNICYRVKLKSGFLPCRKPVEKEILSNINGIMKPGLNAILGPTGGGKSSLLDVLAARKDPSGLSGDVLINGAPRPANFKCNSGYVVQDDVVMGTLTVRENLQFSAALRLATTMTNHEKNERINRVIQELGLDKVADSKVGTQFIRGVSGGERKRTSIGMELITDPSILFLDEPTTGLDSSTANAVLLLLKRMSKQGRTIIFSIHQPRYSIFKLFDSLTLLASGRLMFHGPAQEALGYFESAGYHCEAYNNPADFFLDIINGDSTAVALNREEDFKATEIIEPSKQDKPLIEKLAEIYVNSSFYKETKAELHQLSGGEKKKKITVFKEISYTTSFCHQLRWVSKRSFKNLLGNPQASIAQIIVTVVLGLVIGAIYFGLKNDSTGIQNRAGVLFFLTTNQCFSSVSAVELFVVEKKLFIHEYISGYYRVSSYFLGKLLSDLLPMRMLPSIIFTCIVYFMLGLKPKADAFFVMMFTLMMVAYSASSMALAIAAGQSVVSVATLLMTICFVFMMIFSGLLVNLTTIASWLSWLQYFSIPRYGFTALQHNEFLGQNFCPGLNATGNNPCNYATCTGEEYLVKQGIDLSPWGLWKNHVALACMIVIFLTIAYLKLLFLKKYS

[2] = Resistance factor, ratio of SN-38 GI50 for MDCK2 cells expressing C-terminal GFP-fused human ABCG2 in presence of 0.0100 uM test compound to SN-38 GI50 for MDCK2 cells in absence of test compound; assay type: functional
[3] = Resistance factor, ratio of SN-38 GI50 for MDCK2 cells expressing C-terminal GFP-fused human ABCG2 in presence of 0.0316 uM test compound to SN-38 GI50 for MDCK2 cells in absence of test compound; assay type: functional
[4] = Resistance factor, ratio of SN-38 GI50 for MDCK2 cells expressing C-terminal GFP-fused human ABCG2 in presence of 0.316 uM test compound to SN-38 GI50 for MDCK2 cells in absence of test compound; assay type: functional
ABCG2 [5] = experiment: Therapeutic index, ratio of GI50 for MDCK2 cells expressing C-terminal GFP-fused human ABCG2 to IC50 for C-terminal GFP-fused human ABCG2 expressed in MDCK2 BCRP cells; assay type: toxicity, cell-based; details: dog, read-out: TI
ABCG2 [6] = target: T2, ABCG2 (Homo sapiens, UniProt Q9UNQ0); experiment: Inhibition of C-terminal GFP-fused human ABCG2 expressed in MDCK2 cells up to 10 uM preincubated for 30 mins followed by Hoechst 33342 addition and measured every 60 secs for 120 mins by Hoechst 33342 accumulation assay relative to XR9577; assay type: cell-based; details: MDCK2 cells expressing C-terminal GFP-fused human ABCG2, probe Hoechst 33342, read-out: Imax
T2 sequence (Q9UNQ0 whole entry): T1 sequence (Q9UNQ0 whole entry)

[7] = Resistance factor, ratio of SN-38 GI50 for MDCK2 cells expressing C-terminal GFP-fused human ABCG2 in presence of 0.100 uM test compound to SN-38 GI50 for MDCK2 cells in absence of test compound; assay type: functional
[8] = Growth inhibition of MDCK2 cells expressing C-terminal GFP-fused human ABCG2 after 72 hrs by MTT assay; assay type: ADME, cell-based, Canis lupus familiaris, MDCK-II; details: dog
[9] = Growth inhibition of MDCK2 cells after 72 hrs by MTT assay; assay type: cell-based, Canis lupus familiaris, MDCK-II; details: dog
[10] = target: T1, Broad substrate specificity ATP-binding cassette transporter ABCG2
Description: Inhibition of C-terminal GFP-fused human ABCG2 expressed in MDCK2 cells preincubated for 30 mins followed by Hoechst 33342 addition and measured every 60 secs for 120 mins by Hoechst 33342 accumulation assay

[11] = target: ATP-dependent translocase ABCB1 (Homo sapiens, UniProt P08183); experiment: Inhibition of ABCB1 in human A2780adr cells assessed as reduction in calcein AM levels preincubated for 30 mins followed by calcein AM addition measured immediately at 60 sec time interval for 60 mins by fluorescence assay; assay type: cell-based
[12] = Resistance factor, ratio of SN-38 GI50 for MDCK2 cells expressing C-terminal GFP-fused human ABCG2 in presence of 1 uM test compound to SN-38 GI50 for MDCK2 cells in absence of test compound; assay type: functional
ABCB1 = ABCB1 (Homo sapiens, UniProt P08183); experiment: Inhibition of ABCB1 in human A2780adr cells assessed as reduction in calcein AM levels at 10 uM preincubated for 30 mins followed by calcein AM addition measured immediately at 60 sec time interval for 60 mins by fluorescence assay relative to control; assay type: cell-based; details: probe calcein AM
Chain of ABCB1 (P08183 whole entry): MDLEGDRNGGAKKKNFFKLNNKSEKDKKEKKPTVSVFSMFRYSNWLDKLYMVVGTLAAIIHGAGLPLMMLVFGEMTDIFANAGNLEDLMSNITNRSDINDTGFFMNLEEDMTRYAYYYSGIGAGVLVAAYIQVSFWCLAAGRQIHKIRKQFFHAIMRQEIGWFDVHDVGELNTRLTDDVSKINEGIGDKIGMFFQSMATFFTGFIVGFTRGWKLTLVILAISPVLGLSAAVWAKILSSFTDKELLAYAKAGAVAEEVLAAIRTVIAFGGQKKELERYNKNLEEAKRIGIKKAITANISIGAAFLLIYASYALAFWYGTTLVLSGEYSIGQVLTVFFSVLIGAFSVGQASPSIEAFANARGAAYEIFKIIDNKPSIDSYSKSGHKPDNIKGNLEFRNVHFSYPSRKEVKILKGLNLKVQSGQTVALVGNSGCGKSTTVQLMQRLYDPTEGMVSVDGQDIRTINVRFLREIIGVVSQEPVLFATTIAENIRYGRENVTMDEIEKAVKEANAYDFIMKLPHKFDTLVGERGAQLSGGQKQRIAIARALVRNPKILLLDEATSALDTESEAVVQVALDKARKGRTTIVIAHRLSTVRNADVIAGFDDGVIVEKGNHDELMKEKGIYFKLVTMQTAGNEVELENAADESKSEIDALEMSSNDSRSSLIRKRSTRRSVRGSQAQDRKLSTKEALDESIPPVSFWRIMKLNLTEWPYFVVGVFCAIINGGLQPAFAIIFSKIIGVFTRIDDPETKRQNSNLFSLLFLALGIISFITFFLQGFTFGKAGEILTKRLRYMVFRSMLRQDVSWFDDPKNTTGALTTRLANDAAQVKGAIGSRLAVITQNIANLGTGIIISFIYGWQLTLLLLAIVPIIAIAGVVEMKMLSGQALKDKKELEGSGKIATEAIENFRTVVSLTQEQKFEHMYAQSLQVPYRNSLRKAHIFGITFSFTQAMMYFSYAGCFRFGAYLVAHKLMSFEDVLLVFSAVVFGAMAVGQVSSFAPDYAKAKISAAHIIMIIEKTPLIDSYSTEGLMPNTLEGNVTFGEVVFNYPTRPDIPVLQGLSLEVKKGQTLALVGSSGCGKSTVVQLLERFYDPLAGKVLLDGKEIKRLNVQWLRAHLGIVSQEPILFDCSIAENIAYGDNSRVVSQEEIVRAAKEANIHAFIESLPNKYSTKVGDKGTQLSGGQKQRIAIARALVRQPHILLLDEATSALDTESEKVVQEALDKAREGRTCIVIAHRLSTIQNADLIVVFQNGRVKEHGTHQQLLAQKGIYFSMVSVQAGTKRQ

Chain of ATP-dependent translocase ABCB1 (P08183 whole entry, the tested form may be a part): as the sequence (P08183 whole entry) above

Row | Emax at 2 h (ABCG2 [6]) [%] | IC50 [10] [µM] | SMILES | also measured
1 |  |  | COc1ccc(C(=O)Nc2ccccc2-c2nn[nH]n2)cc1 | inhibition (INH) [1]: Not Active
2 | 101 | 0.112 | O=C(Nc1ccccc1-c1nnc(-c2ccccc2)o1)c1ccccc1 | RatioGI50 [2]: 5.51; RatioGI50 [3]: 2.61; RatioGI50 [4]: 1.49; selectivity ratio (ABCG2 [5]): 658; RatioGI50 [7]: 1.52; GI50 at 72 h [8]: 73.7 µM; GI50 at 72 h [9]: 60.8 µM
3 |  |  | COc1ccc(-n2nnc(-c3ccccc3NC(=O)c3ccc(C(F)(F)F)cc3)n2)cc1 | inhibition (INH) [1]: Not Active
4 |  |  | COc1ccc(C(=O)Nc2ccccc2-c2nnn(-c3ccc(OC)cc3)n2)cc1 | inhibition (INH) [1]: Not Active
5 | 78 | 0.267 | COc1ccc(-n2nnc(-c3ccccc3NC(=O)c3cccc4ccccc34)n2)cc1 | 
6 | 103 | 0.0616 | COc1ccc(C(=O)Nc2ccccc2-c2nnn(-c3ccc(OC)nc3)n2)cc1 | RatioGI50 [2]: 4.49; RatioGI50 [3]: 2.64; RatioGI50 [4]: 1.04; selectivity ratio (ABCG2 [5]): 1270; IC50 [11]: 8.55 µM; RatioGI50 [7]: 1.1; GI50 at 72 h [8]: 78 µM; GI50 at 72 h [9]: 80.1 µM
7 | 100 | 15.3 | O=C(Nc1ccccc1-n1cc(-c2ccccc2)nn1)c1ccccc1 | RatioGI50 [3]: 5.37; RatioGI50 [4]: 2.38; selectivity ratio (ABCG2 [5]): 33.1; IC50 [11]: 21.2 µM; RatioGI50 [7]: 3.59; GI50 at 72 h [8]: 506 µM; RatioGI50 [12]: 1.63; GI50 at 72 h [9]: 452 µM
8 | 82 | 0.228 | COc1ccc(-n2nnc(-c3ccccc3NC(=O)c3cnc4ccccc4c3)n2)cc1 | 
9 | 100 | 2.36 | COc1ccc(C(=O)Nc2ccccc2-n2cc(-c3ccc(OC)cc3)nn2)cc1 | 
10 | 123 | 0.259 | O=C(Nc1ccccc1-c1nnn(-c2ccccc2)n1)c1ccc2c(c1)OCO2 | 
11 | 100 | 39.8 | COc1ccc(-n2nnc(-c3ccc(NC(=O)c4ccc(C(F)(F)F)cc4)cc3)n2)cc1 | 
12 | 106 | 0.19 | O=C(Nc1ccccc1-c1nnn(-c2ccccc2)n1)c1ccc2c(c1)OCCO2 | 
13 | 50 | 0.129 | COc1ccc(-n2nnc(-c3cc(OC)ccc3NC(=O)c3ccc([N+](=O)[O-])cc3)n2)cc1 | 
14 | 95 | 0.565 | COc1ccc(-n2nnc(-c3ccccc3NC(=O)C3CCCCC3)n2)cc1 | 
15 | 96 | 0.0774 | COc1ccc(-n2nnc(-c3cc(OC)ccc3NC(=O)c3ccc(C(F)(F)F)cc3)n2)cc1 | 
16 | 100 | 8.34 | c1ccc(-c2ccccc2-c2nnn(-c3ccccc3)n2)cc1 | 
17 | 120 | 0.102 | COc1ccc(-n2nnc(-c3ccccc3NC(=O)c3ccccc3)n2)cn1 | 
18 | 97 | 0.287 | O=C(Nc1ccccc1-c1nnn(-c2ccccc2)n1)c1ccncc1 | 

Row | Emax at 2 h (ABCG2 [6]) [%] | IC50 [10] [µM] | SMILES | also measured
19 | 51 | 0.176 | O=C(Nc1ccccc1-c1nnn(-c2ccccc2)n1)c1cnc2ccccc2c1 | 
20 | 99 | 1.06 | O=C(Nc1ccccc1-c1nnn(-c2ccccc2)n1)C12CC3CC(CC(C3)C1)C2 | inhibition at 1 h, 10 µM (ABCB1): 51%; IC50 [11]: 11 µM
21 |  |  | O=C(Nc1ccccc1-c1nn[nH]n1)c1ccccc1 | inhibition (INH) [1]: Not Active
22 | 100 | 6.91 | CC(=O)Nc1ccccc1-c1nnn(-c2ccccc2)n1 | 
23 | 99 | 0.733 | O=C(Nc1ccccc1-c1nnn(-c2ccccc2)n1)c1ccccn1 | IC50 [11]: 5.91 µM
24 | 47 | 0.09 | COc1ccc(-c2nnc(-c3ccccc3NC(=O)c3ccc(C(F)(F)F)cc3)o2)cc1 | 
25 | 118 | 0.766 | COc1ccc(-c2cn(-c3ccccc3NC(=O)c3ccc(C(F)(F)F)cc3)nn2)cc1 | 
26 | 81 | 0.445 | O=C(Nc1ccccc1-c1nnn(-c2ccccc2)n1)c1cccnc1 | 
27 | 100 | 7.67 | COc1ccc(-n2nnc(-c3ccccc3NS(=O)(=O)c3ccc(OC)cc3)n2)cc1 | 
28 | 85 | 0.43 | O=C(Nc1ccccc1-c1nnn(-c2ccccc2)n1)c1cccc2ccccc12 | 
29 | 97 | 0.287 | O=C(Nc1ccccc1-c1nnn(-c2ccccc2)n1)C1CCCCC1 | 
30 | 106 | 0.27 | O=C(Nc1ccccc1-c1nnn(-c2ccccc2)n1)c1cccs1 | 
31 | 100 | 18.5 | COc1ccc(-n2nnc(-c3cccc(NC(=O)c4ccc(C(F)(F)F)cc4)c3)n2)cc1 | 
32 | 90 | 0.351 | COc1ccc(-n2nnc(-c3ccccc3NC(=O)c3cccs3)n2)cc1 | 
33 | 124 | 0.438 | COc1ccc(C(=O)Nc2ccccc2-c2nnc(-c3ccc(OC)cc3)o2)cc1 | RatioGI50 [2]: 6.61; RatioGI50 [3]: 5.07; RatioGI50 [4]: 1.29; selectivity ratio (ABCG2 [5]): 836; RatioGI50 [7]: 2.17; GI50 at 72 h [8]: 404 µM; GI50 at 72 h [9]: 487 µM
34 | 95 | 0.13 | COc1ccc(-n2nnc(-c3ccccc3NC(=O)c3ccc(C(F)(F)F)cc3)n2)cn1 | 
35 | 100 | 3.23 | COc1ccc(-n2nnc(-c3ccccc3NC(C)=O)n2)cc1 | 
36 | 100 | 15.8 | COc1ccc(-n2nnc(-c3ccccc3-n3nnc(-c4ccc(C(F)(F)F)cc4)n3)n2)cc1 | 
